“Also recorded” adds a separate entry of the source. Like-named read-outs stand apart in the source and are kept apart here.
Legend:
DRN 5-HT neurons [1] = experiment: Extracellular single-unit recordings of DRN 5-HT neuron mean firing rate in anaesthetized rats; format: in vivo, rat
[2] = tested on: hippocampal CA3 pyramidal neurons; experiment: Acute i.v. prucalopride on firing of hippocampal CA3 pyramidal neurons, with microiontophoresis; format: in vivo, rat
Protocol: FIGS. 9A to 9D. FIGS. 9A and 9C show a typical example (integrated firing rate histogram) of the response of a single hippocampal pyramidal neuron of the CA3 sub-field to an acute, intravenous administration of the selective 5-HT4 agonist prucalopride (1000 μg/kg), and its reversal by local, microiontophoretic application of the selective 5-HT1A antagonist WAY 100635 (A), or systemic injection of the selective 5-HT4 antagonist GR 125487 (1000 μg/kg, i.v.) (C). Single-cell extracellular recordings were performed in the CA3 region of chloral-hydrate anaesthetized rats by using multiple-barrel glass microelectrodes, combined with microiontophoretic pumps (with the central barrel used for recordings). Pyramidal neurons were identified according to the classical criteria (see Example 5, experimental procedures). FIGS. 9B and 9D show a summary of the effects as for FIGS. 9A and 9C, respectively. Bar histograms represent the mean (S.E.M.) percentage effect, calculated for each neuron with respect to its basal firing rate (i.e. 100% value), and the number in each column represents the number of neurons tested. *p<0.05 vs basal value, one-way ANOVA.
(§1) Microiontophoresis and extracellular recordings from hippocampal CA3 pyramidal neurons. Recording and microiontophoresis were performed with five-barreled glass micropipettes broken back to 8-12 μm under microscope control. The central barrel was filled with the same solution as in the DRN and was used for extracellular unitary recordings. Pyramidal neurons were identified by their large amplitude (0.5-1.2 mV) and long-duration (0.8-1.2 ms) simple spikes alternating with complex spike discharges (Kandel and Spencer, 1961). The side barrels contained the following solutions: quisqualate (1.5 mM in 200 mM NaCl, pH 8), WAY 100635 (15 mM in 200 mM NaCl, pH 4), and 2 M NaCl used for automatic current balancing. Rats were mounted in the stereotaxic apparatus and the micropipettes were lowered at 4.2 mm lateral and 4.2 anterior to lambda into the CA3 sub-region of the dorsal hippocampus.
Involvement of endogenous 5-HT and hippocampal 5-HT1A receptors in the effect of 5-HT4 agonists. […] This interpretation is consistent with our own previous findings, showing that both acute and chronic (3-day) administration of the same compounds augment DRN 5-HT neuronal firing activity (Lucas and Debonnel, 2002; Lucas et al., 2005). It is also in keeping with observations from a single in vivo microdialysis study, where acute systemic injection of preferential 5-HT4 agonists increased hippocampal 5-HT efflux (Ge and Barnes, 1996). To further address this possibility, two additional series of experiments were conducted. First, the role of endogenous 5-HT was assessed by using the same protocol as above, in rats co-treated with RS 67333 (or its vehicle) and the 5-HT depleter para-chlorophenylalanine (pCPA). […] The ejection currents of quisqualate needed to activate CA3 pyramidal neurons were, in this case, similar to those used in controls (0 to −2 nA, FIG. 8C). We then tested the ability of a local application of WAY 100635, directly into the CA3 subfield through the use of microiontophoresis, to modify the effect of a 5-HT4 agonist. We chose not to use the previous protocol (i.e. chronic treatments), because, as shown above, the required quisqualate currents differ between the experimental groups. Even though all currents were balanced, it was not possible to exclude the possibility that the amount of quisqualate present in the vicinity of the electrode may have an influence on the quantity of WAY 100635 actually ejected, and/or on its ability to act on pyramidal neurons. For this reason, prucalopride was used acutely in naïve rats, at a dose known to induce a significant augmentation of DRN 5-HT neuronal activity (1000 μg/kg, i.v.) (Lucas and Debonnel, 2002). […]

[3] = tested on: hippocampal CA3 pyramidal neurons; experiment: Response of hippocampal CA3 pyramidal neurons to WAY 100635 after 3-day treatments (5-HT1A tonus); format: in vivo, rat; conditions: rat, in vivo, iv
Protocol: FIGS. 8A to 8C. […] Single-cell extracellular recordings were performed in the CA3 region of chloral-hydrate anaesthetized rats by using multiple-barrel glass microelectrodes, combined with microiontophoretic pumps (with the central barrel used for recordings). Pyramidal neurons were identified according to the classical criteria (see Example 5, the experimental procedures). The 5-HT4 agonists were administered through the use of osmotic minipumps, inserted subcutaneously in the region of the back. Recordings were performed with the minipumps still in place. *p<0.05, **p<0.01, ***p<0.001 vs control, Dunnett's test. […] FIG. 8C is a typical example showing the response of a single pyramidal neuron to cumulative doses of WAY 100635, in a rat co-administered with RS 67333 (same treatment as above for FIG. 8A) and the 5-HT depleter para-chlorophenylalanine (pCPA; 150 mg/kg, i.p. once daily 72, 48 and 24 h before the recordings).
Drugs and Chemicals. The following compounds were used: GR 125487 sulphamate, prucalopride monohydrochloride, citalopram hydrobromide (gifts from Glaxo, Janssen and Lundbeck laboratories, respectively), RS 67333 hydrochloride (Tocris Cookson Inc., Ellisville, Mo., USA), WAY 100635 hydrochloride (Research Biochemicals, Natick, Mass., USA), pCPA methyl ester hydrochloride, BrdU (Sigma-Aldrich Canada, Oakville, Ontario, Canada). All compounds were diluted in distilled water. All drug dosages refer to the free base. For chronic treatments, prucalopride (2.5 mg/kg/day), RS 67333 (1.5 mg/kg/day) or the vehicle were delivered through osmotic minipumps (Alza, Palo Alto, Calif., USA), inserted subcutaneously in the region of the back under short-duration (≦5 min) halothane anesthesia. The 5-HT depleter PCPA was administered once daily at the dose of 150 mg/kg, i.p., 72, 48 and 24 h before the recordings. BrdU treatments consisted of two administrations per day (50 mg/kg, i.p. each, 8 h interval), starting from the day of minipump insertion until day 2 post-surgery.
as §1
The firing activity of dorsal hippocampus pyramidal neurons was then recorded in the CA3 subfield, before and after systemic administration of the selective 5-HTLA antagonist WAY 100635.

[4] = Forced swimming test (FST); format: in vivo, rat
Source text: The “forced swimming test” (FST) is a behavioural test for rodents, which predicts the efficacy of antidepressant drugs (Porsolt et al., 1977; Lucki, 1997). […] The widespread use of this model is largely a result of its ease of use, reliability across laboratories and ability to detect a broad spectrum of antidepressant agents. The test is based on the observation that rats, following initial escape-oriented movements (climbing and swimming), develop an immobile posture when placed in an inescapable cylinder of water. If they are replaced in the same testing apparatus 24 h later, they resume this immobile posture quickly. The immobility is thought to reflect either a failure of persistence in escape-directed behavior (i.e. behavioral despair) or the development of passive behavior that disengages the animal from active forms of coping with stressful stimuli. If antidepressant treatments are given between the two exposures, the subjects will actively persist engaging in escape-directed behaviors for longer periods of time than after vehicle treatment. This will be reflected by a reduction of immobility time, and by an increase of climbing attempts. […] The combination effect of a particular 5-HT4 agonist and a SSRI may be evaluated using the FST model.
Experiments were carried out in male Sprague-Dawley rats (Charles River, St Constant, Québec). We used the FST as previously described (Porsolt et al., 1977). Briefly, the rats experienced a pretest session followed 24 hours later by a test session. For both the pretest and the test sessions, conducted under low illumination (12 lx), the rats were placed in a plastic cylindrical tank (50 cm high by 20 cm in diameter) filled with water at […], with a depth of 40 cm, for which the hind limbs could not reach the tank floor. In all experiments, the pretest was carried out for 15 min and the test for 5 min in the same tank but only the last 4 min were analyzed. Following either pretest or test sessions, rats were dried with a towel and kept warm for 30 min before returning in their home cage. A digital camera recorded on line animal's behavior during the FST, and both time of immobility and climbing attempts were counted. Citalopram hydrobromide (10 mg/kg, i.p.) or paroxetine (10 mg/kg, i.p.) and prucalopride hydrochloride (2.5 mg/kg, i.p.) or RS 67333 hydrochloride (1.5 mg/kg, i.p.) were administered simultaneously 30 minutes before the test session. Animals were divided into 4 groups: vehicle/vehicle, 5-HT4 agonist/vehicle, vehicle/SSRI and 5-HT4 agonist/SSRI. For each compound, distilled water was used as the vehicle. All drug dosages refer to the free base.
Behavioral experiments. We used the FST as previously described (Porsolt et al., 1977). Briefly, rats experienced a pre-test session followed 24 hours later by a test session. For both the pre-test and the test sessions, conducted under low illumination (12 lx), the animals were placed in a plastic cylindrical tank (50 cm high by 20 cm in diameter) filled with water at […], with a depth of 40 cm, for which the hind limbs could not reach the tank floor. In all experiments, the pre-test was carried out for 15 min and the test for 5 min in the same tank but the last 4 min only were analyzed. Prucalopride (2.5 mg/kg, i.p.) and RS 67333 (1.5 mg/kg, i.p.) were administered 30 min before the test session. Following either pre-test or test sessions, rats were dried with a towel and kept warm for 30 min before returning in their home cage. A camera coupled with a computer recorded on line animal behavior during the FST through a specialized digital interface (Videotrack, ViewPoint, Lyon, France). This interface underscored on line the subtraction of video frames. Immobility time in FST was derived from the number of frames (every 40 ms) being below a predefined threshold over FST duration.

DRN 5-HT1A autoreceptors = experiment: Citalopram i.v. dose-response on DRN 5-HT neuron firing (5-HT1A autoreceptor sensitivity) after 3-day RS 67333; format: in vivo, rat
Protocol: FIG. 7 is a dose-response curve illustrating the effect of cumulative intravenous doses of citalopram on DRN 5-HT neuron average (mean±S.E.M.) firing rate, expressed as percentage of basal activity, in rats treated with the selective 5-HT4 agonist RS 67333 (1.5 mg/kg/day, 3 days, n=5) or its vehicle (n=5). Single-cell extracellular recordings were performed in the DRN of chloral-hydrate anaesthetized rats by using single-barrel glass microelectrodes, and 5-HT neurons were identified according to the classical criteria (see Example 5, the experimental procedures). RS 67333 was administered through the use of osmotic minipumps, inserted subcutaneously in the region of the back. Recordings were performed with the minipumps still in place.
Extracellular recordings of DRN 5-HT neurons. Recordings were performed using single-barreled glass micropipettes. Electrodes were filled with a 2 M NaCl solution saturated with Fast Green FCF, resulting in an impedance of 2-5 MΩ. Rats were anaesthetized with chloral hydrate (400 mg/kg, i.p.) and placed in a stereotaxic frame. A burr hole was drilled on the midline 1 mm anterior to lambda. DRN 5-HT neurons were encountered over a distance of 1 mm starting immediately below the ventral border of the Sylvius aqueduct. These neurons were identified using the classical criteria: a slow (0.5-2.5 Hz) and regular firing rate and long-duration (0.8-1.2 ms) positive action potentials (Aghajanian, 1978). At the end of the experiments, a 25 μA cathodal current was passed through the recording electrode to leave a Fast Green deposit at the recording site. Animals were sacrificed with an i.v. overdose of chloral hydrate, and the brain removed. The site of recording was verified under microscope immediately after experiments.
Statistical analysis. The comparison between the two slopes in FIG. 7 was performed by using the GraphPad Prism software (Version 3.03, GraphPad Software Inc.). All other statistics were performed by using one-way ANOVAs, followed by the Dunnett's test when multiple comparisons were necessary.
Effect of a 3-day treatment with a 5-HT4 agonist on DRN 5-HT1A autoreceptors sensitivity. […] In rats treated with the selective 5-HT4 agonist RS 67333 (Eglen et al., 1995) (1.5 mg/kg/day), these values were shifted to the right, reaching 226±26 and 430 μg/kg, respectively. […] The acute inhibitory effect produced by a SSRI on DRN 5-HT neuronal activity results from increased extracellular levels of 5-HT, due to the blockade of its reuptake, and is selectively related to the stimulation of somatodendritic 5-HT1A autoreceptors (Hajos et al., 1999). The degree of inhibition induced by citalopram has therefore been used as a reliable index of their sensitivity (Arborelius et al., 1999, 2004; Sanchez et al., 2003). It appears that a 3-day treatment with a 5-HT4 receptor agonist is sufficient to desensitize 5-HT1A autoreceptors in the DRN.

DRN 5-HT neurons [5] = conditions: cited from earlier work
[6] = microiontophoretic application, 1 nA
[7] = rats treated with RS 67333 1.5 mg/kg/day, 3 days

COc1[nH]c2ccc(F)cc2c1C(=O)OCC1CCN(CCNS(C)(=O)=O)CC1 [GR 125487]
effect of GR 125487 on the facilitory effect of 3-day prucalopride or RS 67333 on DRN 5-HT firing rate (DRN 5-HT neurons [1]; GR 125487 acute i.v., tracks from 30 min after injection): totally suppressed | effect of GR 125487 on its own on 5-HT neuronal activity (DRN 5-HT neurons [1]; acute i.v., control rats): small, non statistically significant | effect of GR 125487 on the action of prucalopride ([2]; GR 125487 1000 μg/kg i.v.): abolished

COc1ccccc1N1CCN(CCN(C(=O)C2CCCCC2)c2ccccn2)CC1 [WAY 100635]
effect of WAY 100635 on CA3 pyramidal neurons [3]: no effect; also recorded: without any effect | effect of local WAY 100635 by itself [2, 6]: devoid of any effect | effect of local WAY 100635 on the inhibition by prucalopride [2, 6]: totally reversed

CN(C)CCCC1(c2ccc(F)cc2)OCc2cc(C#N)ccc21 (stereo not shown) [citalopram]
change of total time of immobility in FST ([4]; Example 3, single i.p. 30 min before test, citalopram or paroxetine 10 mg/kg, prucalopride 2.5 mg/kg, RS 67333 1.5 mg/kg): −34% | effect on immobility in FST ([4]; Example 4, citalopram 3 mg/kg i.p.): no effect | slope of the dose-response curve (DRN 5-HT1A autoreceptors; RS 67333 group (1.5 mg/kg/day, 3 days)): −0.25±0.02 | ED50 of inhibition of 5-HT neuronal firing rate (DRN 5-HT1A autoreceptors; naïve (vehicle) animals): 0.13 ± 0.03 mg/kg | ED100 of inhibition of 5-HT neuronal firing rate (DRN 5-HT1A autoreceptors; naïve (vehicle) animals): 0.28 mg/kg | ED50 of inhibition of 5-HT neuronal firing rate (DRN 5-HT1A autoreceptors; [7]): 0.226 ± 0.026 mg/kg | ED100 of inhibition of 5-HT neuronal firing rate (DRN 5-HT1A autoreceptors; [7]): 0.43 mg/kg | slope of the dose-response curve (DRN 5-HT1A autoreceptors; vehicle group): −0.34±0.03

CN1CCN2c3ncccc3Cc3ccccc3C2C1 (stereo not shown) [mirtazapine]
effect on 5-HT neuron firing rate (DRN 5-HT neurons [5]; acute conditions, Haddjeri et al., 1996): increases | effect on 5-HT neuron firing rate (DRN 5-HT neurons [5]; after a 2-day treatment, Besson et al., 2000): no longer present
